Patent publication EP4230620A1, “SUBSTITUTED N-AMINO-N-BENZOIC ACID URACILS, THEIR SALTS AND USE OF SAID COMPOUNDS AS HERBICIDAL AGENTS” (Bayer Aktiengesellschaft, priority 2022, dated 2023)

Columns and labels:
Assay type in all cases: in vivo
[1] = tested on: Matricaria inodora; test: Post-emergence herbicidal action in greenhouse against MATIN; details: visual rating after ca. 3 weeks
Description: (§1) Biologische Beispiele: • Die folgenden Abkürzungen werden für die in den folgenden Tabellen aufgeführten Kultur- und Schadpflanzen verwendet: ABUTH: Abutilon theophrasti ALOMY: Alopecurus myosuroides AMARE: Amaranthus retroflexus BRSNS: Brassica napus DIGSA: Digitaria sanguinalis ECHCG: Echinochloa crus-galli GLXMA: Glycine max KCHSC: Kochia scoparia LOLRI: Lolium rigidum MATIN: Matricaria inodora ORYZA: Oryza sativa PHPBU: Pharbitis purpurea POLCO: Polygonum convolvulus SETVI: Setaria viridis VERPE: Veronica persica VIOTR: Viola tricolor TRZAS: Triticum aestivum ZEAMX: Zea mays • A. Herbizide Wirkung im Nachauflauf
(§2) Samen von mono- bzw. dikotylen Unkrautpflanzen wurden in Kunststoff- oder Holzfasertöpfen in sandigem Lehmboden ausgelegt, mit Erde abgedeckt und im Gewächshaus unter kontrollierten Wachstumsbedingungen angezogen. 2 bis 3 Wochen nach der Aussaat wurden die Versuchspflanzen im Einblattstadium behandelt. Die in Form von benetzbaren Pulvern (WP) oder als Emulsionskonzentrate (EC) formulierten erfindungsgemäßen Verbindungen wurden dann als wässrige Suspension bzw. Emulsion unter Zusatz von 0,5% Additiv mit einer Wasseraufwandmenge von umgerechnet 600 l/ha auf die grünen Pflanzenteile gesprüht. Nach ca. 3 Wochen Standzeit der Versuchspflanzen im Gewächshaus, unter optimalen Wachstumsbedingungen, wurde die Wirkung der Präparate visuell im Vergleich zu unbehandelten Kontrollen bonitiert. Beispielsweise bedeutet 100% Wirkung = Pflanzen sind abgestorben, 0% Wirkung = wie Kontrollpflanzen.
(§3) In den nachstehenden Tabellen A1 bis A11 sind die Wirkungen ausgewählter Verbindungen der allgemeinen Formel (I) gemäß der Tabelle 1 auf verschiedene Schadpflanzen und einer Aufwandmenge entsprechend 20 g/ha und niedriger, die gemäß zuvor genannter Versuchsvorschrift erhalten wurden, dargestellt. Tabelle A1a: Nachauflaufwirkung bei 1,25 g/ha gegen ABUTH in %

[2] = tested on: Pharbitis purpurea; test: Post-emergence herbicidal action in greenhouse against PHBPU; details: visual rating after ca. 3 weeks
Description: as §1, §2, §3

[3] = tested on: Oryza sativa; test: Post-emergence action on crop plants in greenhouse, ORYZA; details: crop plant, visual rating after ca. 3 weeks, 100% = plants dead, 0% = like control plants
Description: as §1
as §2, with “Kulturpflanzen” for “Unkrautpflanzen”
as §3, with “B1” for “A1”, “B4” for “A11”, “Kulturpflanzen” for “Schadpflanzen”, “B1a:” for “A1a:”, “ZEAMX” for “ABUTH”

[4] = tested on: Polygonum convolvulus; test: Post-emergence herbicidal action in greenhouse against POLCO; details: visual rating after ca. 3 weeks
Description: as §1, §2, §3

[5] = tested on: Triticum aestivum; test: Post-emergence action on crop plants in greenhouse, TRZAS; details: crop plant, visual rating after ca. 3 weeks, 100% = plants dead, 0% = like control plants
Description: as §1
as §2, with “Kulturpflanzen” for “Unkrautpflanzen”
as §3, with “B1” for “A1”, “B4” for “A11”, “Kulturpflanzen” for “Schadpflanzen”, “B1a:” for “A1a:”, “ZEAMX” for “ABUTH”

[6] = tested on: Abutilon theophrasti; test: Post-emergence herbicidal action in greenhouse against ABUTH; details: post-emergence spray, 600 l/ha water, visual rating after ca. 3 weeks vs untreated controls, 100% = plants dead, 0% = like control plants
Description: as §1, §2, §3

[7] = tested on: Veronica persica; test: Post-emergence herbicidal action in greenhouse against VERPE; details: visual rating after ca. 3 weeks
Description: as §1, §2, §3

[8] = tested on: Digitaria sanguinalis; test: Post-emergence herbicidal action in greenhouse against DIGSA; details: visual rating after ca. 3 weeks
Description: as §1, §2, §3

[9] = tested on: Setaria viridis; test: Post-emergence herbicidal action in greenhouse against SETVI; details: visual rating after ca. 3 weeks
Description: as §1, §2, §3

[10] = tested on: Amaranthus retroflexus; test: Post-emergence herbicidal action in greenhouse against AMARE; details: post-emergence spray, 600 l/ha water, visual rating after ca. 3 weeks vs untreated controls, 100% = plants dead, 0% = like control plants
Description: as §1, §2, §3

[11] = tested on: Viola tricolor; test: Post-emergence herbicidal action in greenhouse against VIOTR; details: visual rating after ca. 3 weeks
Description: as §1, §2, §3

[12] = tested on: Zea mays; test: Post-emergence action on crop plants in greenhouse, ZEAMX; details: 1,25 g/ha, crop plant, post-emergence, visual rating after ca. 3 weeks; 100% = plants dead, 0% = like control plants
Description: as §1
as §2, with “Kulturpflanzen” for “Unkrautpflanzen”
as §3, with “B1” for “A1”, “B4” for “A11”, “Kulturpflanzen” for “Schadpflanzen”, “B1a:” for “A1a:”, “ZEAMX” for “ABUTH”

[13] = tested on: Alopecurus myosuroides; test: Post-emergence herbicidal action in greenhouse against ALOMY; details: 20 g/ha; post-emergence spray, 600 l/ha water; visual rating after ca. 3 weeks vs untreated controls; 100% = plants dead, 0% = like control plants
Description: as §1, §2, §3

Row | Nachauflaufwirkung gegen ORYZA ([3]; 1,25 g/ha) [%] | Nachauflaufwirkung gegen TRZAS ([5]; 1,25 g/ha) [%] | Nachauflaufwirkung gegen TRZAS ([5]; 5 g/ha) [%] | Structure (SMILES) | Nachauflaufwirkung gegen MATIN ([1]; 20 g/ha) [%] | Nachauflaufwirkung gegen PHBPU ([2]; 1,25 g/ha) [%] | Nachauflaufwirkung gegen PHBPU ([2]; 5 g/ha) [%] | Nachauflaufwirkung gegen PHBPU ([2]; 20 g/ha) [%] | Nachauflaufwirkung gegen POLCO ([4]; 20 g/ha) [%] | Nachauflaufwirkung gegen ABUTH ([6]; 5 g/ha) [%] | Nachauflaufwirkung gegen ABUTH ([6]; 20 g/ha) [%] | Nachauflaufwirkung gegen VERPE ([7]; 5 g/ha) [%] | Nachauflaufwirkung gegen VERPE ([7]; 20 g/ha) [%] | Nachauflaufwirkung gegen DIGSA ([8]; 20 g/ha) [%] | Nachauflaufwirkung gegen SETVI ([9]; 20 g/ha) [%] | Nachauflaufwirkung gegen AMARE ([10]; 1,25 g/ha) [%] | Nachauflaufwirkung gegen AMARE ([10]; 5 g/ha) [%] | Nachauflaufwirkung gegen AMARE ([10]; 20 g/ha) [%] | Nachauflaufwirkung gegen VIOTR ([11]; 1,25 g/ha) [%] | Nachauflaufwirkung gegen VIOTR ([11]; 5 g/ha) [%] | Nachauflaufwirkung gegen VIOTR ([11]; 20 g/ha) [%] | further results
1 | 0 | 0 | 0 | CC(C)=NOC(=O)C(C)(C)OC(=O)c1cc(-n2c(=O)cc(C(F)(F)F)n(N)c2=O)ccc1Cl [I.2-491] | 100 | 90 | 100 | 100 | 100 | 100 | 100 | 100 | 100 | 100 | 100 | 80 | 100 | 100 | 80 | 100 | 100 | Nachauflaufwirkung gegen MATIN ([1]; 5 g/ha): 80%; Nachauflaufwirkung gegen ORYZA ([3]; 5 g/ha): 0%; Nachauflaufwirkung gegen TRZAS ([5]; 20 g/ha): 20%; Nachauflaufwirkung gegen DIGSA ([8]; 5 g/ha): 100%; Nachauflaufwirkung gegen SETVI ([9]; 1,25 g/ha): 90%; Nachauflaufwirkung gegen SETVI ([9]; 5 g/ha): 100%
2 | 0 | 0 | 0 | CC(C)(OC(=O)c1cc(-n2c(=O)cc(C(F)(F)F)n(N)c2=O)ccc1Cl)C(=O)OCc1ccccn1 [I.2-286] | 100 | 100 | 100 | 100 | 100 | 100 | 100 | 100 | 100 | 100 | 100 | 80 | 100 | 100 | 100 | 100 | 100 | Nachauflaufwirkung gegen ZEAMX [12]: 20%; Nachauflaufwirkung gegen ORYZA ([3]; 5 g/ha): 0%; Nachauflaufwirkung gegen POLCO ([4]; 5 g/ha): 100%; Nachauflaufwirkung gegen TRZAS ([5]; 20 g/ha): 10%; Nachauflaufwirkung gegen ABUTH ([6]; 1,25 g/ha): 80%; Nachauflaufwirkung gegen DIGSA ([8]; 5 g/ha): 80%; Nachauflaufwirkung gegen SETVI ([9]; 1,25 g/ha): 90%; Nachauflaufwirkung gegen SETVI ([9]; 5 g/ha): 100%
3 | 0 | 0 | 0 | CC(C)(OC(=O)c1cc(-n2c(=O)cc(C(F)(F)F)n(N)c2=O)ccc1Cl)C(=O)OCC#N [I.2-176, 1-(Cyanmethoxy)-2-methyl-1-oxopropan-2-yl-5-[3-amino-2,6-dioxo-4-(trifluormethyl)-3,6-dihydropyrimidin-1(2H)-yl]-2-chlorbenzoat] | 80 | 90 | 100 | 100 | 100 | 100 | 100 | 90 | 100 | 100 | 100 | 100 | 100 | 100 | 80 | 100 | 100 | Nachauflaufwirkung gegen ZEAMX [12]: 20%; Nachauflaufwirkung gegen ORYZA ([3]; 5 g/ha): 20%; Nachauflaufwirkung gegen ABUTH ([6]; 1,25 g/ha): 80%
4 | 0 | 0 | 0 | COCCOC(=O)C(C)(C)OC(=O)c1cc(-n2c(=O)cc(C(F)(F)F)n(N)c2=O)ccc1Cl [I.2-1] | 100 | 80 | 90 | 100 | 100 | 100 | 100 | 100 | 100 | 100 | 100 | 100 | 100 | 100 | 90 | 100 | 100 | Nachauflaufwirkung gegen MATIN ([1]; 5 g/ha): 90%; Nachauflaufwirkung gegen ALOMY [13]: 80%; Nachauflaufwirkung gegen ORYZA ([3]; 5 g/ha): 0%; Nachauflaufwirkung gegen TRZAS ([5]; 20 g/ha): 10%; Nachauflaufwirkung gegen ABUTH ([6]; 1,25 g/ha): 90%; Nachauflaufwirkung gegen VERPE ([7]; 1,25 g/ha): 80%; Nachauflaufwirkung gegen SETVI ([9]; 1,25 g/ha): 100%; Nachauflaufwirkung gegen SETVI ([9]; 5 g/ha): 100%
5 | 0 | 0 | 20 | C=CCOC(=O)C(C)(C)OC(=O)c1cc(-n2c(=O)cc(C(F)(F)F)n(N)c2=O)c(F)cc1Cl [I.1-471, 1-(Allyloxy)-2-methyl-1-oxopropan-2-yl-5-[3-amino-2,6-dioxo-4-(trifluormethyl)-3,6-dihydropyrimidin-1(2H)-yl]-2-chlor-4-fluorbenzoat] | 100 | 100 | 100 | 100 | 100 | 100 | 100 | 100 | 100 | 100 | 100 | 100 | 100 | 100 | 90 | 100 | 100 | Nachauflaufwirkung gegen MATIN ([1]; 5 g/ha): 100%; Nachauflaufwirkung gegen ALOMY [13]: 100%; Nachauflaufwirkung gegen POLCO ([4]; 5 g/ha): 100%; Nachauflaufwirkung gegen ABUTH ([6]; 1,25 g/ha): 100%; Nachauflaufwirkung gegen VERPE ([7]; 1,25 g/ha): 100%; Nachauflaufwirkung gegen DIGSA ([8]; 5 g/ha): 100%; Nachauflaufwirkung gegen SETVI ([9]; 1,25 g/ha): 100%; Nachauflaufwirkung gegen SETVI ([9]; 5 g/ha): 100%
